Measured values taken from patent publication US20050013835A1, “Stable non-dihydrate azithromycin oral suspensions” (Pfizer Inc., priority 2003, published 2005).
Read-outs that look alike come from different tables or passages of the source.

Assays:
[1] = Stability of non-dihydrate azithromycin in constituted suspension: conversion to dihydrate (form A) quantified by SS-NMR; assay type: physicochemical; conditions: for rate of conversion to azithromycin dihydrate in POS formulation II suspension as compared to bulk drug suspended in deionized water: 5° C. or 30° C., 1 to 10 days
Procedure: These POS formulations were created by individually weighing each formulation component into a 60-cc High Density Polyethylene (HDPE) bottle with closure. The resulting formulations were then dry-mixed with a Turbula blender (Glen Mills Inc. Maywood, N.J.) for 5 minutes. The powder blends were then constituted with 18 mls of water, shaken for 30 seconds and stored without agitation under controlled temperature conditions.
Upon conclusion of the storage time period the suspensions were filtered and suspended solids collected as described previously.

[2] = Effect of sorbitol vehicle viscosity on conversion in flavoring-free form G suspensions (SS-NMR); assay type: physicochemical; conditions: 820 mg form G, no flavoring, room temperature
Procedure: (§1) Upon conclusion of the storage time period the POS samples were filtered using a Buchner funnel in combination with a standard vacuum filtration apparatus. A Millipore prefilter (AP25, 47 mm) was fitted onto the funnel for the collection of suspended solids. Before filtering, the constituted POS sample was poured into a 200 ml volumetric flask and diluted to 200 ml with water. This lowered the viscosity of the sample, facilitating a quick filtration step. With the vacuum on, the diluted POS samples were poured onto the Millipore prefilter. The isolated filtrate remaining on top of the prefilter was then allowed to stand for 2-minutes in order to dry. Vacuum was applied to the filtration apparatus during this drying step. Suspensions containing only bulk drug were transferred directly onto the filter paper upon completion of storage, without the described dilution step during sample preparation. After drying, the collected filtrate was placed into 4 cc Sunbroker vials and analyzed via Solid-State Nuclear Magnetic Resonance (SS-NMR) for quantification of conversion to azithromycin dihydrate (form A).
(§2) Approximately 300 mg of sample were tightly packed into a 7 mm ZrO spinner for each sample analyzed. One-dimensional ^13C spectra were collected at ambient pressure using ^1H-^13C cross-polarization magic angle spinning (CPMAS) at 295 K on a Bruker 7 mm BL CPMAS probe positioned into a wide-bore Bruker Avance DSX 500 MHz NMR spectrometer (Bruker BioSpin Corporation; Billerica, Mass.). The samples were spun at 7000 Hz corresponding to the maximum specified spinning speed for the 7 mm spinners. The fast spinning speed minimized the intensities of the spinning side bands. To optimize the signal sensitivity, the cross-polarization contact time was adjusted to 2.3 ms and the decoupling power was set to 65 kHz. Typically, a total of 600 scans were acquired, resulting in approximately a 30 minute acquisition time. The spectra were referenced using an external sample of adamantane with its most upfield resonance set to 29.5 ppm.
(§3) Eight pairs of resolved peaks were identified to calibrate ratios of form A in the presence of form G, N, M or F. Integral intensities of all peaks were used as input for the calibration procedure using five different binary mixtures ranging from 3 to 81% of form A with each non-dihydrate form. From this, one non-linear calibration graph was generated for each pair of peaks and each form. For the experimental samples, only the peaks that were totally void from excipient overlap were preferentially integrated. The unknown percentages of form A were then determined from the appropriate calibration graphs. The final result for each sample analyzed was calculated as a weighted average of the determinations from each resolved peak pair.
(§4) Viscosifying agents were incorporated into POS formulations in the absence of conversion enhancers, such as flavoring components. Specifically, a series of viscous media was prepared by dissolving various amounts of either sucrose or sorbitol in a 0.22 M phosphate buffer solution. Each solution was then adjusted with sodium hydroxide to bring the mixture to a pH of 7.8. The viscosity of each constitution media was measured using a Brookfield digital viscometer (model DV-II) equipped with a 13R sample chamber and #18 spindle. A heating jacket was also used to maintain the 8 ml sample volume to a temperature of 21° C. during measurements. 18 mls of each viscous media were then used to constitute 820 mg of form G azithromycin. The resulting suspensions were stored at room temperature for both 5 and 10-days. Upon conclusion of the storage time period the constituted samples were filtered and analyzed by SS-NMR for quantitation of dihydrate species present.

[3] = Effect of sucrose vehicle viscosity on conversion in flavoring-free form G suspensions (SS-NMR); assay type: physicochemical; conditions: 820 mg form G, no flavoring, room temperature
Procedure: as §1, §2, §3, §4

[4] = Addition of polymeric and surfactant components to slow form F conversion in formulation II (SS-NMR); assay type: physicochemical; conditions: additive level 1 % w/v, 18 ml water, 24 hours room temperature
Procedure: as §1, with “Vacuum was applied to the filtration apparatus during this drying step. Suspensions containing only bulk drug were transferred directly onto the filter paper upon completion of storage, without the described dilution step during sample preparation.” left out
(§5) Approximately 300 mg of sample were tightly packed into a 7 mm ZrO spinner for each sample analyzed. […]
(§6) Eight pairs of resolved peaks were identified to calibrate ratios of form A in the presence of form G, N, M or F. Integral intensities of all peaks were used as input for the calibration procedure using five different binary mixtures ranging from 3 to 81% of form A with each non-dihydrate form. […] The unknown percentages of form A were then determined from the appropriate calibration graphs. […]

[5] = Addition of polymeric and surfactant components to slow form M conversion in formulation II (SS-NMR); assay type: physicochemical; conditions: additive level 1 % w/v, 18 ml water, 24 hours room temperature
Procedure: as §1, with “Vacuum was applied to the filtration apparatus during this drying step. Suspensions containing only bulk drug were transferred directly onto the filter paper upon completion of storage, without the described dilution step during sample preparation.” left out
as §5, §6

[6] = Literature value (Johnson, Kreuter and Zografi, Colloids and Surfaces 17 (1986) 325-342); cited from earlier work
[7] = Surface tension of aqueous additive solution (Wilhelmy plate or literature); assay type: physicochemical; conditions: aqueous solution at the concentration used in the suspension (1 % w/v), Kruss Tensiometer, Wilhemy plate, room temperature
[8] = Effect of individual flavorings and sucrose on conversion of form G to form A in pH 8.16 buffer (SS-NMR); assay type: physicochemical; conditions: 820 mg form G + 200 mg flavoring or sucrose, 18 ml pH 8.16 buffer, room temperature
[9] = Bulk drug in 18 ml water, 5° C., day 1
[10] = Bulk drug in 18 ml water, 5° C., day 10
[11] = Bulk drug in 18 ml water, 30° C., day 1
[12] = Bulk drug in 18 ml water, 30° C., day 10
[13] = Formulation II constituted with 18 ml water, 5° C., day 1
[14] = Formulation II constituted with 18 ml water, 5° C., day 10
[15] = Formulation II constituted with 18 ml water, 30° C., day 1
[16] = Formulation II constituted with 18 ml water, 30° C., day 10
[17] = 18 ml 0.0 mg/ml sorbitol solution pH 7.8, viscosity ˜1 cP
[18] = 18 ml 1.02 mg/ml sorbitol solution pH 7.8, viscosity 3.4 cP
[19] = 18 ml 1.54 mg/ml sorbitol solution pH 7.8, viscosity 21.0 cP
[20] = 18 ml 2.04 mg/ml sorbitol solution pH 7.8, viscosity 130.9 cP
[21] = 18 ml 0.0 mg/ml sucrose solution pH 7.8, viscosity 1.2 cP
[22] = 18 ml 0.8 mg/ml sucrose solution pH 7.8, viscosity 10.2 cP
[23] = 18 ml 1.1 mg/ml sucrose solution pH 7.8, viscosity 20.2 cP
[24] = 18 ml 1.4 mg/ml sucrose solution pH 7.8, viscosity 41.7 cP
[25] = 18 ml 1.8 mg/ml sucrose solution pH 7.8, viscosity 105.0 cP
[26] = Bulk drug in 18 ml water, 5° C., day 5
[27] = Bulk drug in 18 ml water, 30° C., day 5
[28] = Formulation II constituted with 18 ml water, 5° C., day 5
[29] = Formulation II constituted with 18 ml water, 30° C., day 5

## CCC1OC(=O)C(C)C(O[C@H]2C[C@@](C)(OC)[C@@H](O)C(C)O2)C(C)[C@@H](OC2OC(C)CC(N(C)C)[C@H]2O)[C@@](C)(O)C[C@@H](C)CN(C)[C@H](C)[C@@H](O)[C@]1(C)O (some centres unmarked) [Form F, azithromycin monohydrate hemi-ethanol solvate]
[1]
  rate of conversion to azithromycin dihydrate in POS formulation II suspension as compared to bulk drug suspended in deionized water: much greater rates
[1]; [9]
  % A: 0%
[1]; [10]
  % A: 0%
[1]; [11]
  % A: 0%
[1]; [12]
  % A: 0%
[1]; [13]
  % A: 6%
[1]; [14]
  % A: 27%
[1]; [15]
  % A: 19%
[1]; [16]
  % A: 31%

## CC[C@H]1OC(=O)[C@H](C)[C@@H](O[C@H]2C[C@@](C)(OC)[C@@H](O)[C@H](C)O2)[C@H](C)[C@@H](O[C@@H]2O[C@H](C)C[C@H](N(C)C)[C@H]2O)[C@](C)(O)C[C@@H](C)CN(C)[C@H](C)[C@@H](O)[C@]1(C)O [Form G, azithromycin sesquihydrate]
[2]; [17]
  5-day Storage (% Form A): 35%
  10-day Storage (% Form A): 100%
[2]; [18]
  5-day Storage (% Form A): 7%
  10-day Storage (% Form A): 7%
[2]; [19]
  5-day Storage (% Form A): 0%
  10-day Storage (% Form A): 0%
[2]; [20]
  5-day Storage (% Form A): 0%
  10-day Storage (% Form A): 0%
[3]; [21]
  5-day Storage (% Form A): 20%
  10-day Storage (% Form A): 55%
[3]; [22]
  5-day Storage (% Form A): 5%
  10-day Storage (% Form A): 12%
[3]; [23]
  5-day Storage (% Form A): 5%
  10-day Storage (% Form A): 6%
[3]; [24]
  5-day Storage (% Form A): 1%
  10-day Storage (% Form A): 3%
[3]; [25]
  5-day Storage (% Form A): 0%
  10-day Storage (% Form A): 0%
[1]
  rate of conversion to azithromycin dihydrate in POS formulation II suspension as compared to bulk drug suspended in deionized water: much greater rates
[1]; [9]
  % A: 1%
[1]; [26]
  % A: 6%
[1]; [10]
  % A: 12%
[1]; [11]
  % A: 3%
[1]; [27]
  % A: 26%
[1]; [12]
  % A: 73%
[1]; [13]
  % A: 72%
[1]; [28]
  % A: 75%
[1]; [14]
  % A: 78%
[1]; [15]
  % A: 82%
[1]; [29]
  % A: 74%
[1]; [16]
  % A: 76%

## CCC1OC(=O)C(C)C(O[C@H]2C[C@@](C)(OC)[C@@H](O)C(C)O2)C(C)[C@@H](OC2OC(C)CC(N(C)C)[C@H]2O)[C@@](C)(O)C[C@@H](C)CN(C)[C@H](C)[C@@H](O)[C@]1(C)O (some centres unmarked) [Form J, azithromycin monohydrate hemi-n-propanol solvate]
[1]
  rate of conversion to azithromycin dihydrate in POS formulation II suspension as compared to bulk drug suspended in deionized water: did not exhibit a greater conversion rate
[1]; [13]
  % A: 0%
[1]; [14]
  % A: 0%
[1]; [15]
  % A: 0%
[1]; [16]
  % A: 0%

## CCC1OC(=O)C(C)C(O[C@H]2C[C@@](C)(OC)[C@@H](O)C(C)O2)C(C)[C@@H](OC2OC(C)CC(N(C)C)[C@H]2O)[C@@](C)(O)C[C@@H](C)CN(C)[C@H](C)[C@@H](O)[C@]1(C)O (some centres unmarked) [Form M, azithromycin monohydrate hemi-isopropanol solvate]
[1]
  rate of conversion to azithromycin dihydrate in POS formulation II suspension as compared to bulk drug suspended in deionized water: much greater rates
[1]; [9]
  % A: 0%
[1]; [26]
  % A: 0%
[1]; [10]
  % A: 0%
[1]; [11]
  % A: 0%
[1]; [27]
  % A: 0%
[1]; [12]
  % A: 0%
[1]; [13]
  % A: 23%
[1]; [28]
  % A: 38%
[1]; [14]
  % A: 40%
[1]; [15]
  % A: 28%
[1]; [29]
  % A: 36%
[1]; [16]
  % A: 62%

## CCCCCCCCOC(=O)CC(C(=O)OCCCCCCCC)S(=O)(=O)O.[Na] (centres unmarked) [Sodium Dioctyl Sulfosuccinate]
[4]
  % Conversion to Form A Relative to the Control Sample: 0%
[5]
  % Conversion to Form A Relative to the Control Sample: 0%
[6]
  Surface Tension: 25.6^1 dyne/cm

## CCCCCCCCCCCCOS(=O)(=O)[O-].[Na+] [Sodium Lauryl Sulfate]
[4]
  % Conversion to Form A Relative to the Control Sample: 0%
[7]
  Surface Tension: 35.8^2 dyne/cm
[5]
  % Conversion to Form A Relative to the Control Sample: 0%

## OC[C@H]1O[C@@](CO)(O[C@H]2O[C@H](CO)[C@@H](O)[C@H](O)[C@H]2O)[C@@H](O)[C@@H]1O [Sucrose]
[8]; constituted 1 day
  Δ % Form A: 2%
[8]; constituted 5 days
  Δ % Form A: 1%
[8]; constituted 10 days
  Δ % Form A: 6%
[8]; constituted 10 days, listed as sucrose
  Δ % Form A: only minimal conversion to form A
